Assay results: patent publication US20110257146A1, “Method of Treating Kcnq Related Disorders Using Organozinc Compounds” (The johns Hopkins University, priority 2006, published 2011)
“And” between values parts separate entries of the source, which are not always exact repeats. Equal entries are not always repeated.

What was measured:
KCNQ2 [1] = molecular target: T1, KCNQ2 (Rattus norvegicus, UniProt O88943); assay: Whole-cell voltage clamp of CHO cells expressing KCNQ2; assay type: cell-based; set-up: expressed in transfected cells; host or cells: CHO cells
Description: (§1) Cell culture and transient transfection—Chinese Hamster Ovary (CHO) cells were grown in 50/50 DMEM/F12 (Cellgro) with 10% FBS (Gibco), 100 U/ml penicillin (Cellgro), 100 μg/ml streptomycin (Cellgro) and 2 mM L-glutamine (Gibco). At 24 hours before transfection, cells were split and plated in 60 mm dishes and were transfected with Lipofectamine2000™ reagent (Invitrogen) according to the manufacturer's instruction. At 24 hours after transfection, cells were split and re-plated onto coverslips coated with poly-L-lysine (Sigma). Plasmid expressing CD4 cDNA as a marker was cotransfected with the channel cDNAs of hKCNQ1 (from Dr. Michael Sanguinetti), hKCNQ4 (from Dr. Vitya Vardanyan), rKCNQ2, rKCNQ3, and hKCNQ5 (from Drs. David McKinnon, Mark Shapiro, and Thomas Jentsch). Prior to recording, anti-CD4 Dynabeads (Dynal. Biotech. Inc.) were added into the medium to allow for identification of the transfected cells. Stable lines expressing Kv2.1, hERG, and Kv4.2 were generated by standard protocols using pcDNA3.1 and maintained at complete medium supplemented with 500 μg/ml G418. The N-type calcium channel stable line was a kind gift from Drs. Diane Lipscombe and David Yue.
(§2) Electrophysiological Recording—Standard whole-cell recording was used. Pipettes were pulled from borosilicate glass capillaries (TW150-4, World Precision Instruments, Sarasota, Fla.). When filled with the intracellular solution, the pipettes have resistances of […]. During the recording, constant perfusion of extracellular solution was maintained using a BPS perfusion system (ALA, Westbury, N.Y.). Pipette solution contained (mM): KCl 145, MgCl2 1, EGTA 5, HEPES 10, MgATP 5 (pH 7.3); extracellular solution contained (mM): NaCl 140, KCl 3, CaCl2 2, MgCl2 1.5, HEPES 10, glucose 10 (pH 7.4). Current and voltage were recorded using an Axopatch-200A amplifier, filtered at 1 kHz and digitized using a DigiData 1322A with pClamp 9.2 software (Axon Instruments, Foster City, Calif.). Series resistance compensation was also used and set to 60-80%.
Data and Statistical Analysis—Patch-clamp data were preprocessed using Clampfit 9.2 (Axon Instruments, Foster City, Calif.) and then analyzed in Origin 7 (OriginLab, Northampton, Mass.). The activation curve was fitted by the Boltzmann equation: G=(Gmax−Gmin)/[1+exp[(V−V1/2)/S]]+Gmin, where Gmax is the maximum conductance, Gmin is the minimum conductance, V1/2 is the voltage for half of the total numbers of channels to open, and S is the slope factor. The dose response curve was fitted by the Hill equation: E=Emax/(1+(EC50/C)^P), where Emax is the maximum response, C is the drug concentration, EC50 is the drug concentration producing half of the maximum response, and P is the Hill coefficient. The deactivation trace was fitted by the standard exponential equation: I(t)=ΣIi*exp(−t/τi), where I is the current, t is the time and τ is the time constant. Data are presented as means±SE. Significance was estimated using paired two-tailed Student's t-test.

KCNQ2 L249A = molecular target: T2, KCNQ2 L249A (Rattus norvegicus, UniProt O88943, L249A); assay: Whole-cell recording of KCNQ2 L249A mutant; assay type: cell-based
T2 construct: expressed in transfected cells
Description: FIG. 9. KCNQ2 point mutants selectively lose ZnPy sensitivity. […] Each mutation site was indicated based on the predicted transmembrane regions. Dashed line indicates the potentiation level of wt KCNQ2 channel in the absence of ZnPy. […] C. Modeling of the S5-pore-S6 region of KCNQ2.
(§3) Mutagenesis—Starting from KCNQ cDNAs, the KCNQ2 point mutants were constructed by recombinant PCR and verified by sequencing.
as §2

[2] = molecular target: T3, Kv4.2 A-type potassium channel (Homo sapiens, UniProt Q9NZV8); assay: Channel activity in Kv4.2 stable line; assay type: cell-based
T3 construct: expressed in transfected cells
Description: as §1, with “The N-type calcium channel stable line was a kind gift from Drs. Diane Lipscombe and David Yue.” left out
(§4) Electrophysiological Recording—Standard whole-cell recording was used. […] Current and voltage were recorded using an Axopatch-200A amplifier, filtered at 1 kHz and digitized using a DigiData 1322A with pClamp 9.2 software (Axon Instruments, Foster City, Calif.). […]

KCNQ2(R207W) = molecular target: T4, KCNQ2(R207W) (Rattus norvegicus, UniProt O88943, R207W); assay: Whole-cell recording of KCNQ2(R207W) BFNC mutant in CHO cells; assay type: cell-based; conditions: 10 μM ZnPy
T4 construct: expressed in transfected cells; host or cells: CHO cells, transient
Description: FIG. 11. ZnPy effects on BFNC mutant channels expressed in CHO cells. A. whole-cell currents of KCNQ2(R207W), KCNQ2(Y284C), and KCNQ2(A306T) were recorded in the absence (left) and presence (right) of 10 μM ZnPy, Vh was −80 mV, in 10 mV voltage steps from −70 mV to +50 mV. B. a histogram plotting potentiation effects on KCNQ2 wild type (wt) and BFNC mutants (R207W, Y284C and […]) by ZnPy (filled box) and retigabine (open box) (n≧4, * p<0.001, ** p<0.05).
as §3
as §2, with “Series resistance compensation was also used and set to 60-80%.” left out

[3] = system: lymphocytic leukemia cells; conditions: micromolar concentrations; cited from earlier work
KCNQ2 [4] = molecular target: T1, KCNQ2; assay: Single channel outside-out patch recording of KCNQ2; assay type: cell-based; set-up: expressed in transfected cells; host or cells: CHO cells
Description: For single channel recording procedure, outside-out patch recording was used. The pipettes had resistances of 7-15 MΩ when filled with the intracellular solution of the following composition (mM): KCl 145, MgCl2 1, EGTA 5, HEPES 10, MgATP 5 (pH 7.3). Extracellular solution contained (mM): NaCl 150, KCl 5, CaCl2 2, MgCl2 1, HEPES 10, glucose 10 (pH 7.4). Current and voltage were recorded using an Axopatch-200B amplifier, sample at 4 kHz and filtered at 200 Hz, and digitized using a DigiData 1322A with pClamp 9.2 software (Axon Instruments, Foster City, Calif.).
The open probability (Po) and single channel current (i) were calculated by fitting all-point histograms with single- or multi-Gaussian curves. The ratio of the area under the fitted ‘open’ Gaussian to the total area under the entire Gaussian was taken as Po, and the difference between the fitted “closed” and “open” peaks was taken as i, single channel conductance (γ) was calculated by the equation: γ=i/(V−V5).

[5] = molecular target: T5, human ether-a-go-go related gene (hERG) (Homo sapiens, UniProt Q12809); assay type: cell-based
T5 construct: expressed in transfected cells
Description: as §1, with “The N-type calcium channel stable line was a kind gift from Drs. Diane Lipscombe and David Yue.” left out
as §4

[6] = Mouse model of severe focal ischemia; conditions: in vivo

T3 sequence (Q9NZV8 whole entry): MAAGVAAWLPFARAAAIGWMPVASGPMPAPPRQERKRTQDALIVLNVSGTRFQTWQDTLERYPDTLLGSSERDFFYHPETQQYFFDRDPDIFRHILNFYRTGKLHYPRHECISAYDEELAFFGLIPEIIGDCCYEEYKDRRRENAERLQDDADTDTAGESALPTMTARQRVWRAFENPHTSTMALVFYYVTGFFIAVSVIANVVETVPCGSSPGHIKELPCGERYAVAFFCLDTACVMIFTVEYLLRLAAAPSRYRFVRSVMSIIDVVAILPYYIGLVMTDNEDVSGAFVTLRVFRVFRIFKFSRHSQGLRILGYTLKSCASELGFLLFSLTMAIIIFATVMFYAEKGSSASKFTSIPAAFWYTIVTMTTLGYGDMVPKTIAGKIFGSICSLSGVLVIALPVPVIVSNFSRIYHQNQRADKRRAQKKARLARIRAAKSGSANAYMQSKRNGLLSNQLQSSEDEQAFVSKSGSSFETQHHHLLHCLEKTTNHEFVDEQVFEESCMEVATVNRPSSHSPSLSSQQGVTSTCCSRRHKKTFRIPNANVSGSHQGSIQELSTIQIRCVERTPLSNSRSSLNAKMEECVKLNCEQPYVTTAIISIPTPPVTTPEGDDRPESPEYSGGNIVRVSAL
T5 sequence (Q12809 whole entry): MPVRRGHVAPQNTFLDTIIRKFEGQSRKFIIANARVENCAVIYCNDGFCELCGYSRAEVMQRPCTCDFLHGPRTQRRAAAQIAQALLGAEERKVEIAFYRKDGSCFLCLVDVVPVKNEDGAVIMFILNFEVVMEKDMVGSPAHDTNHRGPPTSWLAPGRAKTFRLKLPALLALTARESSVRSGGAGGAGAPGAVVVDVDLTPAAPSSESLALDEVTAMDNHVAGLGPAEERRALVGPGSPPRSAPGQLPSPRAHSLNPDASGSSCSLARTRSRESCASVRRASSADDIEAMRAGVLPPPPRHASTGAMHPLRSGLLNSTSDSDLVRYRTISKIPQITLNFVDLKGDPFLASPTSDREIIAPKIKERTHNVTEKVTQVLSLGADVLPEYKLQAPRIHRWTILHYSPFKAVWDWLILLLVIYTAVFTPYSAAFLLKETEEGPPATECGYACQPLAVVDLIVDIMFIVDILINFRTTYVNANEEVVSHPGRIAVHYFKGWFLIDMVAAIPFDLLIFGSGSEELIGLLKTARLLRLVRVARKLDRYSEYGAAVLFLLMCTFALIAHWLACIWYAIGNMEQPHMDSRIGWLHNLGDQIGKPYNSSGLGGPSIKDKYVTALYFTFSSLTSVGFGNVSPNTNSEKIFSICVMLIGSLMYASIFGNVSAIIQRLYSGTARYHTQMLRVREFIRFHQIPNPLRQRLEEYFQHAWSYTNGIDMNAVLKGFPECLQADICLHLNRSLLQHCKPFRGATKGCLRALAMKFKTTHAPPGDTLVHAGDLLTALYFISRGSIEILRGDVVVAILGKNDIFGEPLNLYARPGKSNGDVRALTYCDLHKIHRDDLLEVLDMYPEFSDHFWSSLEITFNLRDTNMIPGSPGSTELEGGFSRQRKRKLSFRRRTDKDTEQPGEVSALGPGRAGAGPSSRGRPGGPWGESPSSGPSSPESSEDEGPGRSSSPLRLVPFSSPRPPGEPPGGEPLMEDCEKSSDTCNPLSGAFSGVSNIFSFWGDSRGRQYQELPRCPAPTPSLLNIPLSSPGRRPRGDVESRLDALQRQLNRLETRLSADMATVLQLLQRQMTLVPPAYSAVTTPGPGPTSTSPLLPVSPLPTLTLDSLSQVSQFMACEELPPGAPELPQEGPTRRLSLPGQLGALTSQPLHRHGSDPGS

SMILES: S=c1ccccn1[O][Zn][O]n1ccccc1=S [ZnPy, Zinc Pyrithione]
- effect on membrane potential of CHO cells expressing KCNQ2 (KCNQ2 [1]; 10 μM ZnPy): significant hyperpolarization
- left (hyperpolarizing) shift of V1/2 (KCNQ2 [1]; 10 μM ZnPy): 25.5±1.5 mV
- effect on TEA-blocked KCNQ2 current (KCNQ2 [1]; 10 μM ZnPy extracellular in presence of 20 mM TEA): unable to reverse the TEA inhibition
- potentiation on intracellular application (KCNQ2 [1]; 10 μM ZnPy in pipette solution, with or without EGTA): induced no potentiation
- V1/2 on internal perfusion (KCNQ2 [1]; 10 μM ZnPy through recording pipette, 0 to 12 minutes): consistent and identical to that of KCNQ2 control
- effect on channel activity (KCNQ2 [1]; 10 μM ZnPy, extracellular): potentiated
- V1/2 (voltage required for half maximal activation) in presence of compound (KCNQ2 [1]; 10 μM ZnPy, control −18.9±0.6 mV): −44.4±0.9 mV
- activation time constant (KCNQ2 [1]; +50 mV, with ZnPy, control 163.5±13.7): 293.1±11.2 milliseconds
- Hill coefficient of dose dependent curve (KCNQ2 [1]; KCNQ2): 1.8
- EC50 (KCNQ2 [1]; KCNQ2 alone, read-out: EC50 of midpoint of activation voltage (V1/2) shift): 1500 ± 300 nM
- deactivation time constant (KCNQ2 [1]; −120 mV, 10 μM ZnPy, control 14.1±0.6): 54.4±0.9 milliseconds
- change in V1/2 caused by ZnPy (KCNQ2 L249A): significant reduction on changes in V1/2
- potentiation of channel activity [2]: did not potentiate
- fold current increase (KCNQ2(R207W)): more than 3 fold
- anti-apoptotic effect in vitro [3]: protected lymphocytic leukemia cells against colchicine-induced apoptosis
- single channel open probability (Po) (KCNQ2 [4]; 0 mV, 10 μM ZnPy, control 0.13): 0.77±0.06 and 0.77
- fitted unitary current amplitude (KCNQ2 [4]; 0 mV, 10 μM ZnPy, control 0.51 pA): 0.52 pA
- fold increase in Po (KCNQ2 [4]; 10 μM ZnPy): 5.9 fold
- single channel conductance (KCNQ2 [4]; in the presence or absence of ZnPy): 6.6±0.15 pS
- potentiation of channel activity [5]: did not potentiate
- neuroprotection [6]: significantly decreasing brain infarct volume and neurological deficit
